Test system: Aβ+ plaques
Assay: Tissue binding assay (fluorescence), plaques in human AD tissue sections
Parameters: key to Plaques (staining): −: No staining; +: weak staining; ++: moderate staining; +++: intense staining
Settings: Table 3; 100 μM, human AD tissue
Method: (§1) Human brain tissue samples from the entorhinal cortex of patients with Alzheimer's disease (AD) and healthy controls were obtained from Tissue Solutions (Tissue Solutions Ltd, Glasgow, UK). Tissue samples were collected after informed written consent, and specimens were dissected at the tissue bank and snap-frozen for cryopreservation at a time interval of between 3 and 18 h after death. The frozen tissue was embedded in TissueTek® (VWR) and sectioned using a Microm HM560 cryostat (Thermo Scientific). Serial 12 μm sections were mounted onto SuperFrost®+ glass slides (VWR) and stored a −70° C.
(§2) The binding of compounds to tau+NFTs and Aβ+ plaques in human AD tissue were evaluated based on fluorescence.
(§3) Briefly, tissue sections were defrosted and fixed in ice-cold 70% ethanol. All tissue sections were rinsed with PBS after fixation and between all subsequent incubation steps. To quench autofluorescence, tissue sections were incubated first with 0.25% KMnO4 (Sigma-Aldrich) in PBS for 12 min, and then with 0.1% […]/0.1% oxalic acid (both reagents from Sigma-Aldrich) in PBS for 1 min. The tissue sections were blocked with 2% BSA in PBS for 10 min, and then incubated with the test compounds at 100 μM concentration for 1 h at RT. […] Finally the tissue sections were rinsed in PBS, and mounted in SlowFade® mounting media (Invitrogen). Images of labelled tissue sections were captured using a Nikon digital camera connected to a Leica microscope and using the NIS Elements D software (Nikon). Images were further processed with the Photoshop® software (Adobe).

Plaques (staining)	SMILES
−	COc1ccc(-n2nc(C(=O)NCCF)c3csc(N)c3c2=O)cc1 [Compound 106]
−	COc1ccc(-n2nc(C(=O)N3CCC(CF)CC3)c3csc(N)c3c2=O)cc1.Cl [Compound 81]
−	COc1ccc(-n2nc(C(=O)N3CCN(c4ccc(F)nc4)CC3)c3csc(N)c3c2=O)cc1 [Compound 67]
−	CNc1scc2c(C(=O)NC(C)C)nn(-c3ccc(OC)cc3)c(=O)c12 [Compound 87]

Same assay, conditions: Table 4; 100 μM, human AD tissue

Plaques (staining)	SMILES
−	CC(C)NC(=O)c1nn(-c2ccc(OCC(O)CF)cc2)c(=O)c2c(N)scc12 (stereo not shown) [Compound 59]
−	CC(C)NC(=O)c1nn(-c2ccc(OCCCF)cc2)c(=O)c2c(N)scc12 [Compound 61]
−	CC(C)(C)OC(=O)c1nn(-c2ccc(OCCF)cc2)c(=O)c2c(N)scc12 [Compound 104]

Test system: tau+ NFTs
Assay: Tissue binding assay (fluorescence), NFTs in human AD tissue sections
Parameters: key to NFTs (staining): −: No staining; +: weak staining; ++: moderate staining; +++: intense staining
Settings: Table 2; 100 μM, human AD tissue
Method: as §1, §2, §3

NFTs (staining)	SMILES
−	CC(C)NC(=O)c1nn(-c2ccc(O)cc2)c(=O)c2c(NC(=O)OC(C)(C)C)scc12 [Compound 63]

Same assay, conditions: Table 3; 100 μM, human AD tissue

NFTs (staining)	SMILES
−	COc1ccc(-n2nc(C(=O)N3CCN(c4ccc(F)nc4)CC3)c3csc(N)c3c2=O)cc1 [Compound 67]
−	CNc1scc2c(C(=O)NC(C)C)nn(-c3ccc(OC)cc3)c(=O)c12 [Compound 87]

Same assay, conditions: Table 4; 100 μM, human AD tissue

NFTs (staining)	SMILES
−	CC(C)NC(=O)c1nn(-c2ccc(OCC(O)CF)cc2)c(=O)c2c(N)scc12 (stereo not shown) [Compound 59]
−	CC(C)NC(=O)c1nn(-c2ccc(OCCCF)cc2)c(=O)c2c(N)scc12 [Compound 61]
−	CC(C)(C)OC(=O)c1nn(-c2ccc(OCCF)cc2)c(=O)c2c(N)scc12 [Compound 104]

Test system: rat liver microsomes
Assay: Liver microsome stability assay, rat
Format: in vitro ADME
Settings: 1 μM, 37° C., 5 min; parent compound remaining; criterion >50%
Method: (§4) The liver microsome stability assay provides an estimate of compound stability and rate of metabolism in vivo. The desirable criterion for this assay is >50% parent compound after 30 min.
(§5) A 1 μM compound solution was incubated with rat or human liver microsomes (20 mg/ml) at 37° C. and the amount of parent compound remaining following the incubation was determined after 5 and 30 min of incubation using LC-MS.

Liver stability Rat (% PCP) 5 min	SMILES
90.03 % PCP	CC(C)NC(=O)c1nn(-c2ccc(O)cc2)c(=O)c2c(N)scc12 [Compound 58]
60.12 % PCP	COc1ccc(-n2nc(C(=O)N3CCC(CF)CC3)c3csc(N)c3c2=O)cc1.Cl [Compound 81]

Same assay, conditions: 1 μM, 37° C., 30 min; parent compound remaining; criterion >50%

Liver stability Rat (% PCP) 30 min	SMILES
79.3 % PCP	CC(C)NC(=O)c1nn(-c2ccc(O)cc2)c(=O)c2c(N)scc12 [Compound 58]
32.54 % PCP	COc1ccc(-n2nc(C(=O)N3CCC(CF)CC3)c3csc(N)c3c2=O)cc1.Cl [Compound 81]

Test system: not listed separately
Assay: In vivo cold bio-distribution in rat (brain uptake, LC-MS)
Settings: male, Wistar, rat, brain, iv, 50 μg/rat, 2 min p.i.
Method: All animal studies were in compliance with local rules and regulations. Test compounds were administered by intravenous (i.v) injection through the tail vein of naïve male Wistar rats (50 μg test compound/rat). The animals were sacrificed by dislocation of the neck at 2, 10, 30, 60 min post-injection (p.i). The brain and plasma were collected from each animal. The concentration of test compound was measured in the plasma and brain homogenates using LS-MS, and calculated as % compound/g (% ID/g).

tissue uptake at 2 min	SMILES
> 0.2 %ID/g	COc1ccc(-n2nc(NCCF)c3csc(N)c3c2=O)cc1 [Compound 99]
0.014 %ID/g	COc1ccc(-n2nc(C(=O)NCCF)c3csc(N)c3c2=O)cc1 [Compound 106]

Same assay, conditions: male, Wistar, rat, brain, iv, 50 μg/rat, 10 min p.i.

tissue uptake at 10 min	SMILES
0.092 %ID/g	COc1ccc(-n2nc(NCCF)c3csc(N)c3c2=O)cc1 [Compound 99]
0.001 %ID/g	COc1ccc(-n2nc(C(=O)NCCF)c3csc(N)c3c2=O)cc1 [Compound 106]

Same assay, conditions: male, Wistar, rat, brain, iv, 50 μg/rat, 30 min p.i.

tissue uptake at 30 min	SMILES
0.013 %ID/g	COc1ccc(-n2nc(NCCF)c3csc(N)c3c2=O)cc1 [Compound 99]
0.004 %ID/g	COc1ccc(-n2nc(C(=O)NCCF)c3csc(N)c3c2=O)cc1 [Compound 106]

Same assay, conditions: male, Wistar, rat, brain, iv, 50 μg/rat, 60 min p.i.

tissue uptake at 60 min	SMILES
0.001 %ID/g	COc1ccc(-n2nc(NCCF)c3csc(N)c3c2=O)cc1 [Compound 99]
0.001 %ID/g	COc1ccc(-n2nc(C(=O)NCCF)c3csc(N)c3c2=O)cc1 [Compound 106]

Same assay, conditions: rat brain, 2 min vs 30 min p.i.

Clearance ratio 2:30 min	SMILES
23.8	COc1ccc(-n2nc(NCCF)c3csc(N)c3c2=O)cc1 [Compound 99]
3.5	COc1ccc(-n2nc(C(=O)NCCF)c3csc(N)c3c2=O)cc1 [Compound 106]

Same assay, conditions: rat, cold bio-distribution

Brain uptake (in words)	SMILES
low brain uptake	COc1ccc(-n2nc(C(=O)NCCF)c3csc(N)c3c2=O)cc1 [Compound 106]

Same assay, conditions: rat, from clearance ratio

SMILES	Brain uptake and clearance (in words)
COc1ccc(-n2nc(NCCF)c3csc(N)c3c2=O)cc1 [Compound 99]	rapid brain uptake followed by rapid clearance

Same assay, conditions: rat, i.v., 2 min p.i.

Brain uptake % ID/g p.i	SMILES
0.31 % ID/g	COc1ccc(-n2nc(NCCF)c3csc(N)c3c2=O)cc1 [Compound 99]

Test system: not listed separately
Assay: Protein binding assay, rat brain homogenates (rapid equilibrium dialysis)
Format: in vitro ADME
Settings: rat brain homogenate, % bound, criterion <99%
Method: (§6) The protein binding assays provide an estimate of free (unbound) fraction of the compound in the blood or brain in vivo. […] The desirable criterion for this assay is <99% of test compound bound.
(§7) Test compounds were first dissolved in DMSO to a concentration of 50 μM. This was followed by incubation in samples of human plasma and rat brain homogenates (final test concentration 1 μM). Binding of compounds to proteins was determined in the samples by rapid equilibrium dialysis after 5 and 30 min of incubation.

fraction unbound at 1 μM	SMILES
0.506	CC(C)NC(=O)c1nn(-c2ccc(O)cc2)c(=O)c2c(N)scc12 [Compound 58]
0.589	COc1ccc(-n2nc(C(=O)N3CCC(CF)CC3)c3csc(N)c3c2=O)cc1.Cl [Compound 81]

Test system: human liver microsomes
Assay: Liver microsome stability assay, human
Format: in vitro ADME
Settings: 1 μM, 37° C., 5 min; parent compound remaining; criterion >50%
Method: as §4, §5

Liver stability Human (% PCP) 5 min	SMILES
100.9 % PCP	CC(C)NC(=O)c1nn(-c2ccc(O)cc2)c(=O)c2c(N)scc12 [Compound 58]
91.63 % PCP	COc1ccc(-n2nc(C(=O)N3CCC(CF)CC3)c3csc(N)c3c2=O)cc1.Cl [Compound 81]

Same assay, conditions: 1 μM, 37° C., 30 min; parent compound remaining; criterion >50%

Liver stability Human (% PCP) 30 min	SMILES
83.4 % PCP	CC(C)NC(=O)c1nn(-c2ccc(O)cc2)c(=O)c2c(N)scc12 [Compound 58]
73.10 % PCP	COc1ccc(-n2nc(C(=O)N3CCC(CF)CC3)c3csc(N)c3c2=O)cc1.Cl [Compound 81]

Test system: not listed separately
Assay: Protein binding assay, human plasma (rapid equilibrium dialysis)
Format: in vitro ADME
Settings: % bound, criterion <99%
Method: as §6, §7

fraction unbound at 1 μM	SMILES
0.068	CC(C)NC(=O)c1nn(-c2ccc(O)cc2)c(=O)c2c(N)scc12 [Compound 58]
0.0498	COc1ccc(-n2nc(C(=O)N3CCC(CF)CC3)c3csc(N)c3c2=O)cc1.Cl [Compound 81]

Test system: not listed separately
Assay: PAMPA (parallel artificial membrane permeability assay)
Format: in vitro ADME
Settings: 10 μM, 5 h at RT; criterion >−6
Method: The PAMPA assay is used to determine how well a compound crosses a cell membrane by measuring its passage through a phosphotidyl choline barrier. A permeability coefficient >−6 indicates high permeability across lipid membranes and is indicative of a compounds ability to cross the blood brain barrier.
A 10 μM solution was incubated on a PDVF membrane coated with a 2% phoshotidyl choline solution for 5 h at RT. Membrane penetration was measured using LC-MS.

PAMPA Log Pe	SMILES
−7.52	CC(C)NC(=O)c1nn(-c2ccc(O)cc2)c(=O)c2c(N)scc12 [Compound 58]
−5.12	COc1ccc(-n2nc(C(=O)N3CCC(CF)CC3)c3csc(N)c3c2=O)cc1.Cl [Compound 81]

Reference: patent US20150004100A1, “HETEROCYCLIC COMPOUNDS AS IMAGING PROBES OF TAU PATHOLOGY” (GE HEALTHCARE LIMITED, priority 2011, published 2015)
